For data set [1], the system named is MCF-7. Kind of data set: MTT assay, MCF-7 cells. It is filed as cell-based, human. To be noted: Homo sapiens, MCF7, 72 h of incubation, read-out: IC50 values ± SD, MCF-7. Background: Tetrazolium assays rely on reduction of a dye to a coloured formazan, in cell work by metabolically active cells.
In data set [2] the test system is MDA-MB-231. Kind of data set: MTT assay, MDA-MB-231 cells. It is filed as cell-based, human. Particulars: Homo sapiens, MDA-MB-231, 72 h of incubation, read-out: IC50 values ± SD, MDA-MB-231.
Data set [3] deals with HeLa. Description: MTT assay, HeLa cells. Format: cell-based, human. Particulars: Homo sapiens, HeLa, 72 h of incubation, read-out: IC50 values ± SD, HeLa.
Data set [4] has as its system HCT-116. Description: MTT assay, HCT-116 cells. It is filed as cell-based, human.
Data set [5] concerns Jurkat. Description: MTT assay, Jurkat cells. It is filed as cell-based, human.
Data set [6] concerns COS-7. Kind of data set: MTT assay, COS-7 normal cells. Format: cell-based, monkey. Particulars: Primates, COS-7, 72 h of incubation, normal cell line, read-out: IC50 values ± SD, COS-7.
For data set [7], the system named is BJ-5ta. Kind of data set: MTT assay, BJ-5ta normal fibroblasts. Format: cell-based, human. Particulars: Homo sapiens, Fibroblast, 72 h of incubation, normal cell line, read-out: IC50 values ± SD, BJ-5ta.
The subject of data set [8] is primary brain endothelial cells. Description: Endothelial cell viability assay (ATP, CellTiter-Glo). Format: cell-based, rats. To be noted: primary rat brain endothelial cells. The text has this: To comprehensively evaluate the cytotoxic effects of the investigated compounds 6c, 6e, and 8a, 8c, we conducted tests on primary endothelial cells. This additional assessment served multiple purposes in our study. Firstly, it aimed to assess the selectivity of these compounds, particularly in comparison to their effects on both tumor and normal cell lines. […] Secondly, by examining their impact on endothelial cells, we aimed to explore potential off-target effects, as endothelial cells are crucial components of blood vessels and play a pivotal role in angiogenesis—a process intricately linked to tumor growth. Lastly, these tests allowed for a broader safety assessment, beyond the scope of tumor and normal cell lines, providing insights into the compounds’ implications for vascular health and their regulatory role in angiogenesis.
Primary brain endothelial cells were isolated from rats (200–250 g, […]; n = 5 per isolation). Euthanasia was performed by CO2 exposure, followed by brain removal. The brainstem and cerebellum were dissected, and the white matter from the midbrain and choroid plexus was excised under sterile conditions. Cortical tissues were meticulously cleaned of meninges and homogenized on ice in a DMEM-F12 medium (PAA Laboratories GmbH, Cölbe, Germany) with 0.1% bovine serum albumin (BSA, Sigma-Aldrich, St. Louis, MO, USA). The homogenate was centrifuged at 800× g for 10 min at 4 °C. After aspirating the supernatant, the pellet was resuspended in a pre-warmed digestion mix containing 1 mg/mL collagenase/dispase (Roche Diagnostics, Indianapolis, IN, USA) and 10 μg/mL DNase I (Roche Diagnostics, Indianapolis, IN, USA). The homogenates were then incubated with the pre-prepared digestion mix at 37 °C for 30 min with gentle shaking. The preparation was centrifuged at 800× g for 10 min at 4 °C, and the pellets were resuspended in 20% BSA in the medium. The tissues were centrifuged at 1500× g for 15 min at 4 °C to obtain a pellet containing microvessels with a fraction of myelin and BSA on top, which was centrifuged again. The microvessels were pooled and resuspended in a pre-warmed digestion mix and incubated for 15 min at 37 °C. The pellet was then centrifuged at 800× g for 10 min at 4 °C and washed with a serum-containing DMEM-F12 culture medium. […] The endothelial cells were ready to use after 7 days.
The endothelial cell viability was assessed through the quantification of adenosine triphosphate (ATP) released from the cells, utilizing the ATP assay as per the manufacturer’s instructions (The Promega CellTiter-Glo™ Luminescent Cell Viability Assay Kit, Madison, WI, USA). […]
Background: Cellular ATP, detected with luciferase, serves as a proxy for viable cell number.

Each structure is given as a SMILES string.

A word on the IC50: it is the midpoint of a concentration-inhibition curve. Usually melting point stands for the temperature, or range, at which the solid turns liquid. In the case of `COc1cccc(NC(=S)NN2C(=O)C(C#N)=CC23c2ccccc2Nc2ccccc23)c1` [6c, 3-{4′-Cyano-5′-oxo-1′,5′-dihydro-10H-spiro[acridine-9,2′-pyrrol]-1′-yl}-1-(3-methoxyphenyl)thiourea], the melting point is 184 to 186 °C (dec.). Also, in data set [1], the IC50 is 34.2 ± 5.01 µM. For the same compound, in [2], the IC50 was determined as 47.2 ± 1.17 µM. For the same compound, in data set [3], the IC50 came out at 41.1 ± 1.91 µM. In addition, the IC50 in [4] (Homo sapiens, HCT-116, MTT, 72 h of incubation, read-out: IC50 values ± SD, HCT-116) is 7 ± 0.22 µM. In data set [4] (ratio of IC50 values), the “selectivity index, HCT-116 compared to non-tumor cells COS-7 and BJ-5ta” value was “exceeding 10”. In addition, in data set [5] (Homo sapiens, Jurkat, MTT, 72 h of incubation, read-out: IC50 values ± SD, Jurkat), the IC50 amounted to 6.47 ± 0.27 µM. In data set [5] (ratio of IC50 values), the “selectivity index, Jurkat compared to non-tumor cells COS-7 and BJ-5ta” value was “exceeding 10”. Also, in data set [6], the IC50 was found to be 83.4 ± 4.79 µM. Further, the IC50 in data set [7] is 73.2 ± 2.41 µM. In [8], this compound yielded an IC50 of 39 µM.

These data come from article PMC10537105, “Derivatives Incorporating Acridine, Pyrrole, and Thiazolidine Rings as Promising Antitumor Agents” (Molecules, 2023).
